Data as given in PubChem BioAssay AID1963831 (Molecular Pharmacology Branch, DTP, NCI, 2024).

System: 889142-216-R-J1-PDC complex spheroid viability
Test: Anticancer human tumor 889142-216-R-J1-PDC patient-derived bladder carcinoma cell line growth inhibition [POLQ]
Settings: for IC50: curve of first compound; for viability, T/C: stronger effect = lower value
How it was run: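 Patient-derived tumour cells were co-cultured with HUVEC and mesenchymal stem cells as multicellular spheroids at 37 °C. They were treated with POLQ inhibitors (novobiocin, ART-558, RP6685) alone or combined with other agents. Top concentrations were at or near clinical Cmax (otherwise 10 microM; SN-38 at 1 microM), decreasing in half-log steps.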

[1] = second compound 0.0316 µM, first compound 0.0316 µM
[2] = second compound 0.0316 µM, first compound 0.1 µM
[3] = second compound 0.0316 µM, first compound 0.316 µM
[4] = second compound 0.0316 µM, first compound 1 µM
[5] = second compound 0.0316 µM, first compound 3.16 µM
[6] = second compound 0.0316 µM, first compound 10 µM
[7] = second compound 0.1 µM, first compound 0.0316 µM
[8] = second compound 0.1 µM, first compound 0.1 µM
[9] = second compound 0.1 µM, first compound 0.316 µM
[10] = second compound 0.1 µM, first compound 1 µM
[11] = second compound 0.1 µM, first compound 3.16 µM
[12] = second compound 0.1 µM, first compound 10 µM
[13] = second compound 0.316 µM, first compound 0.0316 µM
[14] = second compound 0.316 µM, first compound 0.1 µM
[15] = second compound 0.316 µM, first compound 0.316 µM
[16] = second compound 0.316 µM, first compound 1 µM
[17] = second compound 0.316 µM, first compound 3.16 µM
[18] = second compound 0.316 µM, first compound 10 µM
[19] = second compound 1 µM, first compound 0.0316 µM
[20] = second compound 1 µM, first compound 0.1 µM
[21] = second compound 1 µM, first compound 0.316 µM
[22] = second compound 1 µM, first compound 1 µM
[23] = second compound 1 µM, first compound 3.16 µM
[24] = second compound 1 µM, first compound 10 µM
[25] = second compound 3.16 µM, first compound 0.0316 µM
[26] = second compound 3.16 µM, first compound 0.1 µM
[27] = second compound 3.16 µM, first compound 0.316 µM
[28] = second compound 3.16 µM, first compound 1 µM
[29] = second compound 3.16 µM, first compound 3.16 µM
[30] = second compound 3.16 µM, first compound 10 µM
[31] = second compound 10 µM, first compound 0.0316 µM
[32] = second compound 10 µM, first compound 0.1 µM
[33] = second compound 10 µM, first compound 0.316 µM
[34] = second compound 10 µM, first compound 1 µM
[35] = second compound 10 µM, first compound 3.16 µM
[36] = second compound 10 µM, first compound 10 µM
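Further: spheroids exposed to compounds for seven days.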
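Wherever viability, T/C is given: 100% = DMSO vehicle control viability.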

## CCc1cc2c(N3CCc4c(cc(Cn5ccnc5)cc4-c4cn(C)nc4C(F)(F)F)C3=O)ccnc2c(OC)n1 + COC1C(OC(N)=O)C(O)C(Oc2ccc3c(O)c(NC(=O)c4ccc(O)c(CC=C(C)C)c4)c(=O)oc3c2C)OC1(C)C
Second compound 0.0316 µM
  IC50: > 10000 nM
Second compound 0.1 µM
  IC50: > 10000 nM
Second compound 0.316 µM
  IC50: > 10000 nM
Second compound 1 µM
  IC50: > 10000 nM
Second compound 3.16 µM
  IC50: > 10000 nM
Second compound 10 µM
  IC50: > 10000 nM
[1]
  viability, T/C: 120%
[2]
  viability, T/C: 109%
[3]
  viability, T/C: 119%
[4]
  viability, T/C: 95.5%
[5]
  viability, T/C: 69.1%
[6]
  viability, T/C: 83%
[7]
  viability, T/C: 101%
[8]
  viability, T/C: 117%
[9]
  viability, T/C: 98.3%
[10]
  viability, T/C: 111%
[11]
  viability, T/C: 105%
[12]
  viability, T/C: 62%
[13]
  viability, T/C: 105%
[14]
  viability, T/C: 106%
[15]
  viability, T/C: 102%
[16]
  viability, T/C: 115%
[17]
  viability, T/C: 96.1%
[18]
  viability, T/C: 64.3%
[19]
  viability, T/C: 112%
[20]
  viability, T/C: 130%
[21]
  viability, T/C: 107%
[22]
  viability, T/C: 102%
[23]
  viability, T/C: 83.9%
[24]
  viability, T/C: 77.7%
[25]
  viability, T/C: 95.6%
[26]
  viability, T/C: 106%
[27]
  viability, T/C: 117%
[28]
  viability, T/C: 94.2%
[29]
  viability, T/C: 95%
[30]
  viability, T/C: 77.9%
[31]
  viability, T/C: 122%
[32]
  viability, T/C: 103%
[33]
  viability, T/C: 112%
[34]
  viability, T/C: 109%
[35]
  viability, T/C: 91.6%
[36]
  viability, T/C: 67.3%

## CC1COCCN1c1cc(C2(O)CC3CCC(C2)O3)c2cnn(-c3ccn[nH]3)c2n1 (stereo not drawn) + Cc1cccc(N(C)C(=O)C2C(O)CCN2c2nc(C)cc(C(F)(F)F)c2C#N)c1
Second compound 0.0316 µM
  IC50: 133 nM
Second compound 0.1 µM
  IC50: 71 nM
Second compound 0.316 µM
  IC50: 133 nM
Second compound 1 µM
  IC50: 102 nM
Second compound 3.16 µM
  IC50: 98.8 nM
Second compound 10 µM
  IC50: 56.5 nM
[1]
  viability, T/C: 66.5%
[2]
  viability, T/C: 48.2%
[3]
  viability, T/C: 42.3%
[4]
  viability, T/C: 34.2%
[5]
  viability, T/C: 26.1%
[6]
  viability, T/C: 14.6%
[7]
  viability, T/C: 56.7%
[8]
  viability, T/C: 48.1%
[9]
  viability, T/C: 36.1%
[10]
  viability, T/C: 29%
[11]
  viability, T/C: 23.8%
[12]
  viability, T/C: 15.2%
[13]
  viability, T/C: 66.8%
[14]
  viability, T/C: 49.5%
[15]
  viability, T/C: 39.8%
[16]
  viability, T/C: 34.5%
[17]
  viability, T/C: 25.9%
[18]
  viability, T/C: 12.4%
[19]
  viability, T/C: 62.7%
[20]
  viability, T/C: 48.4%
[21]
  viability, T/C: 38.9%
[22]
  viability, T/C: 31.2%
[23]
  viability, T/C: 22.6%
[24]
  viability, T/C: 12.4%
[25]
  viability, T/C: 61.5%
[26]
  viability, T/C: 47.9%
[27]
  viability, T/C: 40%
[28]
  viability, T/C: 30.6%
[29]
  viability, T/C: 26.4%
[30]
  viability, T/C: 13.7%
[31]
  viability, T/C: 55.9%
[32]
  viability, T/C: 43.6%
[33]
  viability, T/C: 37.6%
[34]
  viability, T/C: 29.5%
[35]
  viability, T/C: 29.9%
[36]
  viability, T/C: 13.3%

## CC1COCCN1c1cc(C2(O)CC3CCC(C2)O3)c2cnn(-c3ccn[nH]3)c2n1 (stereo not drawn) + COC1C(OC(N)=O)C(O)C(Oc2ccc3c(O)c(NC(=O)c4ccc(O)c(CC=C(C)C)c4)c(=O)oc3c2C)OC1(C)C
Second compound 0.0316 µM
  IC50: 125 nM
Second compound 0.1 µM
  IC50: 132 nM
Second compound 0.316 µM
  IC50: 180 nM
Second compound 1 µM
  IC50: 195 nM
Second compound 3.16 µM
  IC50: 169 nM
Second compound 10 µM
  IC50: 93.3 nM
[1]
  viability, T/C: 64.3%
[2]
  viability, T/C: 50.6%
[3]
  viability, T/C: 40.6%
[4]
  viability, T/C: 32.7%
[5]
  viability, T/C: 26.2%
[6]
  viability, T/C: 14.7%
[7]
  viability, T/C: 69.9%
[8]
  viability, T/C: 50.2%
[9]
  viability, T/C: 38.6%
[10]
  viability, T/C: 32.5%
[11]
  viability, T/C: 27.5%
[12]
  viability, T/C: 15.2%
[13]
  viability, T/C: 66.4%
[14]
  viability, T/C: 53.6%
[15]
  viability, T/C: 40.2%
[16]
  viability, T/C: 37.5%
[17]
  viability, T/C: 33.3%
[18]
  viability, T/C: 13.2%
[19]
  viability, T/C: 77.4%
[20]
  viability, T/C: 54.9%
[21]
  viability, T/C: 42.4%
[22]
  viability, T/C: 32.2%
[23]
  viability, T/C: 29.5%
[24]
  viability, T/C: 12.7%
[25]
  viability, T/C: 64.3%
[26]
  viability, T/C: 54.5%
[27]
  viability, T/C: 40.5%
[28]
  viability, T/C: 39.2%
[29]
  viability, T/C: 25.2%
[30]
  viability, T/C: 14.1%
[31]
  viability, T/C: 65.2%
[32]
  viability, T/C: 43.2%
[33]
  viability, T/C: 39.2%
[34]
  viability, T/C: 30.6%
[35]
  viability, T/C: 30.1%
[36]
  viability, T/C: 13.9%

## CC1COCCN1c1cc(C2(S(C)(=N)=O)CC2)nc(-c2ccnc3[nH]ccc23)n1 (stereo not drawn) + COC1C(OC(N)=O)C(O)C(Oc2ccc3c(O)c(NC(=O)c4ccc(O)c(CC=C(C)C)c4)c(=O)oc3c2C)OC1(C)C
Second compound 0.0316 µM
  IC50: 1930 nM
Second compound 0.1 µM
  IC50: 1800 nM
Second compound 0.316 µM
  IC50: 996 nM
Second compound 1 µM
  IC50: 977 nM
Second compound 3.16 µM
  IC50: 1960 nM
Second compound 10 µM
  IC50: 1820 nM
[1]
  viability, T/C: 99%
[2]
  viability, T/C: 93.9%
[3]
  viability, T/C: 71.5%
[4]
  viability, T/C: 59.8%
[5]
  viability, T/C: 42.9%
[6]
  viability, T/C: 40.4%
[7]
  viability, T/C: 90.8%
[8]
  viability, T/C: 102%
[9]
  viability, T/C: 82.9%
[10]
  viability, T/C: 56.6%
[11]
  viability, T/C: 46.1%
[12]
  viability, T/C: 39.8%
[13]
  viability, T/C: 84.3%
[14]
  viability, T/C: 92.8%
[15]
  viability, T/C: 80.9%
[16]
  viability, T/C: 49.7%
[17]
  viability, T/C: 49.6%
[18]
  viability, T/C: 38.9%
[19]
  viability, T/C: 83.4%
[20]
  viability, T/C: 131%
[21]
  viability, T/C: 73.6%
[22]
  viability, T/C: 60.5%
[23]
  viability, T/C: 47.6%
[24]
  viability, T/C: 40.4%
[25]
  viability, T/C: 100%
[26]
  viability, T/C: 98%
[27]
  viability, T/C: 85.6%
[28]
  viability, T/C: 55.4%
[29]
  viability, T/C: 46.2%
[30]
  viability, T/C: 45.2%
[31]
  viability, T/C: 103%
[32]
  viability, T/C: 84.2%
[33]
  viability, T/C: 87.3%
[34]
  viability, T/C: 53%
[35]
  viability, T/C: 49.5%
[36]
  viability, T/C: 43.9%
